Laboratory results: ChEMBL document CHEMBL1126034, “Carboxylic acid replacement structure-activity relationships in suosan type sweeteners. A sweet taste antagonist. 1” (J Med Chem, 1992)

Columns and labels:
Format in all cases: functional
[1] = Compound was tested at the concentration of 2000(ppm) for percent sucrose intensity in aspartame solution contains concentration of 1000(ppm)
[2] = Compound was tested at the concentration of 4000(ppm) for bitterness rating in naringin aqueous solution contains concentration of 290(ppm)
[3] = Compound was tested at the concentration of 4.0 mg/mL for percent sucrose intensity in aqueous sucrose solution (3.5%)
[4] = Compound was tested at the concentration of 4.0 mg/mL for percent sucrose intensity in aqueous sucrose solution (7.5%)
[5] = Compound was tested at the concentration of 0(ppm) for percent sucrose intensity in aspartame solution contains concentration of 1000(ppm)
[6] = Compound was tested at the concentration of 4000(ppm) for percent sucrose equivalent intensity in sucralose aqueous solution contains concentration of 152(ppm)
[7] = Compound was tested at the concentration of 3.0 mg/mL for percent sucrose intensity in aqueous sucrose solution (12.5%)
[8] = Compound was tested at the concentration of 4000(ppm) for percent sucrose intensity in aspartame solution contains concentration of 250(ppm)
[9] = Compound was tested at the concentration of 2.0 mg/mL for percent sucrose intensity in aqueous sucrose solution (10%)
[10] = Compound was tested at the concentration of 2000(ppm) for percent sucrose intensity in aspartame solution contains concentration of 750(ppm)
[11] = Compound was tested at the concentration of 2000(ppm) for percent sucrose intensity in aspartame solution contains concentration of 2000(ppm)
[12] = Compound was tested at the concentration of 4000(ppm) for percent sucrose intensity in aspartame solution contains concentration of 750(ppm)
[13] = Compound was tested at the concentration of 4000(ppm) for percent sucrose intensity in aspartame solution contains concentration of 3000(ppm)
[14] = Compound was tested at the concentration of 0.0 mg/mL for percent sucrose intensity in aqueous sucrose solution( 10%)
[15] = Compound was tested at the concentration of 2000(ppm) for percent sucrose intensity in aspartame solution contains concentration of 1500(ppm)
[16] = Compound was tested at the concentration of 4000(ppm) for percent sucrose intensity in aspartame solution contains concentration of 2500(ppm)
[17] = Compound was tested at the concentration of 1000(ppm) for percent sucrose intensity in aspartame solution contains concentration of 3000(ppm)
[18] = Compound was tested at the concentration of 0(ppm) for percent sucrose equivalent intensity in saccharin aqueous solution contains concentration of 330(ppm)
[19] = Compound was tested at the concentration of 0.0 mg/mL for percent sucrose intensity in aqueous sucrose solution(12.5%)
[20] = Compound was tested at the concentration of 4000(ppm) for percent sucrose equivalent intensity in Na cyclamate aqueous solution contains concentration of 5000(ppm)
[21] = Compound was tested at the concentration of 0.0 mg/mL for percent sucrose intensity in aqueous sucrose solution(7.5%)
[22] = Compound was tested at the concentration of 0.0 mg/mL for percent sucrose intensity in aqueous sucrose solution(3.5%)
[23] = Compound was tested at the concentration of 0(ppm) for percent sucrose equivalent intensity in thaumatin aqueous solution contains concentration of 40(ppm)
[24] = Compound was tested at the concentration of 0(ppm) for percent sucrose equivalent intensity in NHDHC aqueous solution contains concentration of 250(ppm)
[25] = Compound was tested at the concentration of 3.0 mg/mL for percent sucrose intensity in aqueous sucrose solution (10%)
[26] = Compound was tested at the concentration of 4000(ppm) for percent sucrose equivalent intensity in aspartame aqueous solution contains concentration of 750(ppm)
[27] = Compound was tested at the concentration of 0.0 mg/mL for percent sucrose intensity in aqueous sucrose solution(5.6%)
[28] = Compound was tested at the concentration of 2.0 mg/mL for percent sucrose intensity in aqueous sucrose solution (5.6%)
[29] = Compound was tested at the concentration of 0(ppm) for percent sucrose intensity in aspartame solution contains concentration of 2500(ppm)
[30] = Compound was tested at the concentration of 1000(ppm) for percent sucrose intensity in aspartame solution contains concentration of 2000(ppm)
[31] = Compound was tested at the concentration of 0(ppm) for percent sucrose intensity in aspartame solution contains concentration of 3000(ppm)
[32] = Compound was tested at the concentration of 1000(ppm) for percent sucrose intensity in aspartame solution contains concentration of 750(ppm)
[33] = Compound was tested at the concentration of 4000(ppm) for percent sucrose equivalent intensity in sucrose aqueous solution contains concentration of 10000(ppm)
[34] = Compound was tested at the concentration of 4000(ppm) for percent sucrose intensity in aspartame solution contains concentration of 1500(ppm)
[35] = Compound was tested at the concentration of 3.0 mg/mL for percent sucrose intensity in aqueous sucrose solution (3.5%)
[36] = Compound was tested at the concentration of 4000(ppm) for percent sucrose equivalent intensity in saccharin aqueous solution contains concentration of 330(ppm)
[37] = Compound was tested at the concentration of 4000(ppm) for percent sucrose equivalent intensity in acesulfame-K aqueous solution contains concentration of 1000(ppm)
[38] = Compound was tested at the concentration of 3.0 mg/mL for percent sucrose intensity in aqueous sucrose solution (7.5%)
[39] = Compound was tested at the concentration of 4000(ppm) for percent sucrose equivalent intensity in thaumatin aqueous solution contains concentration of 40(ppm)
[40] = Compound was tested at the concentration of 1000(ppm) for percent sucrose intensity in aspartame solution contains concentration of 250(ppm)
[41] = Compound was tested at the concentration of 0(ppm) for percent sucrose equivalent intensity in aspartame aqueous solution contains concentration of 750(ppm)
[42] = Compound was tested at the concentration of 4000(ppm) for bitterness rating in caffiene aqueous solution contains concentration of 1100(ppm)
[43] = Compound was tested at the concentration of 2.0 mg/mL for percent sucrose intensity in aqueous sucrose solution (7.5%)
[44] = Compound was tested at the concentration of 4000(ppm) for percent sucrose equivalent intensity in NHDHC aqueous solution contains concentration of 250(ppm)
[45] = Compound was tested at the concentration of 4.0 mg/mL for percent sucrose intensity in aqueous sucrose solution (12.5%)
[46] = Compound was tested at the concentration of 4.0 mg/mL for percent sucrose intensity in aqueous sucrose solution (5.6%)
[47] = Compound was tested at the concentration of 0(ppm) for percent sucrose equivalent intensity in sucrose aqueous solution contains concentration of 10000(ppm)
[48] = Compound was tested at the concentration of 0(ppm) for percent sucrose intensity in aspartame solution contains concentration of 500(ppm)
[49] = Compound was tested at the concentration of 4000(ppm) for bitterness rating in quinine aqueous solution contains concentration of 15(ppm)
[50] = Compound was tested at the concentration of 4.0 mg/mL for percent sucrose intensity in aqueous sucrose solution (10%)
[51] = Compound was tested at the concentration of 0(ppm) for percent sucrose equivalent intensity in acesulfame-K aqueous solution contains concentration of 1000(ppm)
[52] = Compound was tested at the concentration of 0(ppm) for percent sucrose equivalent intensity in Na cyclamate aqueous solution contains concentration of 5000(ppm)
[53] = Compound was tested at the concentration of 1000(ppm) for percent sucrose intensity in aspartame solution contains concentration of 500(ppm)
[54] = Compound was tested at the concentration of 0(ppm) for percent sucrose equivalent intensity in MAG aqueous solution contains concentration of 3000(ppm)
[55] = Compound was tested at the concentration of 4000(ppm) for percent sucrose equivalent intensity in rebaudioside A aqueous solution contains concentration of 638(ppm)
[56] = Compound was tested at the concentration of 3.0 mg/mL for percent sucrose intensity in aqueous sucrose solution (5.6%)
[57] = Compound was tested at the concentration of 4000(ppm) for percent sucrose equivalent intensity in MAG aqueous solution contains concentration of 3000(ppm)
[58] = Compound was tested at the concentration of 4000(ppm) for percent sucrose intensity in aspartame solution contains concentration of 1000(ppm)
[59] = Compound was tested at the concentration of 4000(ppm) for percent sucrose intensity in aspartame solution contains concentration of 2000(ppm)
[60] = Compound was tested at the concentration of 1000(ppm) for percent sucrose intensity in aspartame solution contains concentration of 1500(ppm)
[61] = Compound was tested at the concentration of 0(ppm) for bitterness rating in naringin aqueous solution contains concentration of 290(ppm)
[62] = Compound was tested at the concentration of 2000(ppm) for percent sucrose intensity in aspartame solution contains concentration of 500(ppm)
[63] = Compound was tested at the concentration of 1000(ppm) for percent sucrose intensity in aspartame solution contains concentration of 1000(ppm)
[64] = Compound was tested at the concentration of 0(ppm) for percent sucrose equivalent intensity in rebaudioside A aqueous solution contains concentration of 638(ppm)
[65] = Compound was tested at the concentration of 0(ppm) for percent sucrose intensity in aspartame solution contains concentration of 2000(ppm)
[66] = Compound was tested at the concentration of 2000(ppm) for percent sucrose intensity in aspartame solution contains concentration of 2500(ppm)
[67] = Compound was tested at the concentration of 0(ppm) for bitterness rating in quinine aqueous solution contains concentration of 15(ppm)
[68] = Compound was tested at the concentration of 1000(ppm) for percent sucrose intensity in aspartame solution contains concentration of 2500(ppm)
[69] = Compound was tested at the concentration of 0(ppm) for percent sucrose intensity in aspartame solution contains concentration of 250(ppm)
[70] = Compound was tested at the concentration of 0(ppm) for bitterness rating in caffiene aqueous solution contains concentration of 1100(ppm)
[71] = Compound was tested at the concentration of 2.0 mg/mL for percent sucrose intensity in aqueous sucrose solution (3.5%)
[72] = Compound was tested at the concentration of 4000(ppm) for percent sucrose intensity in aspartame solution contains concentration of 500(ppm)
[73] = Compound was tested at the concentration of 0(ppm) for percent sucrose intensity in aspartame solution contains concentration of 1500(ppm)
[74] = Compound was tested at the concentration of 0(ppm) for percent sucrose intensity in aspartame solution contains concentration of 750(ppm)
[75] = Compound was tested at the concentration of 0(ppm) for percent sucrose equivalent intensity in sucralose aqueous solution contains concentration of 152(ppm)
[76] = Compound was tested at the concentration of 2.0 mg/mL for percent sucrose intensity in aqueous sucrose solution (12.5%)
[77] = Compound was tested at the concentration of 2000(ppm) for percent sucrose intensity in aspartame solution contains concentration of 250(ppm)
[78] = Compound was tested at the concentration of 2000(ppm) for percent sucrose intensity in aspartame solution contains concentration of 3000(ppm)

With N#Cc1ccc(NC(=O)NCS(=O)(=O)O)cc1 the Sweetness potency [1] was 7.34 0-15 scale, the Bitter taste intensity [2] was 7.8 0-15 scale and the Sweetness potency [3] was 1.2 0-15 scale. The Sweetness potency [4] was 3.3 0-15 scale, the Sweetness potency [5] was 10.1 0-15 scale and the Sweetness potency [6] was 1.43 0-15 scale. The Sweetness potency [7] was 8.6 0-15 scale, the Sweetness potency [8] was 1.37 0-15 scale and the Sweetness potency [9] was 7.3 0-15 scale. For the same compound, the Sweetness potency [10] was 6.24 0-15 scale, the Sweetness potency [11] was 9.35 0-15 scale and the Sweetness potency [12] was 4.46 0-15 scale. The Sweetness potency [13] was 7.82 0-15 scale, the Sweetness potency [14] was 10.1 0-15 scale and the Sweetness potency [15] was 8.35 0-15 scale. The Sweetness potency [16] was 8.86 0-15 scale, the Sweetness potency [17] was 10.7 0-15 scale and the Sweetness potency [18] was 8.15 0-15 scale. The Sweetness potency [19] was 12.3 0-15 scale, the Sweetness potency [20] was 6.05 0-15 scale and the Sweetness potency [21] was 8.5 0-15 scale. For the same compound, the Sweetness potency [22] was 4 0-15 scale, the Sweetness potency [23] was 8.86 0-15 scale and the Sweetness potency [24] was 8.85 0-15 scale. The Sweetness potency [25] was 6.5 0-15 scale, the Sweetness potency [26] was 3.87 0-15 scale and the Sweetness potency [27] was 6.1 0-15 scale. The Sweetness potency [28] was 3.6 0-15 scale, the Sweetness potency [29] was 12.9 0-15 scale and the Sweetness potency [30] was 10.5 0-15 scale. For the same compound, the Sweetness potency [31] was 11.4 0-15 scale, the Sweetness potency [32] was 7.43 0-15 scale and the Sweetness potency [33] was 3.23 0-15 scale. For the same compound, the Sweetness potency [34] was 6.44 0-15 scale, the Sweetness potency [35] was 1.6 0-15 scale and the Sweetness potency [36] was 4.06 0-15 scale. The Sweetness potency [37] was 4.59 0-15 scale, the Sweetness potency [38] was 4.2 0-15 scale and the Sweetness potency [39] was 6.23 0-15 scale. For the same compound, the Sweetness potency [40] was 3.3 0-15 scale, the Sweetness potency [41] was 9.88 0-15 scale and the Bitter taste intensity [42] was 4.77 0-15 scale. The Sweetness potency [43] was 4.9 0-15 scale, the Sweetness potency [44] was 5.98 0-15 scale and the Sweetness potency [45] was 6.4 0-15 scale. The Sweetness potency [46] was 1.3 0-15 scale, the Sweetness potency [47] was 9.6 0-15 scale and the Sweetness potency [48] was 7.55 0-15 scale. The Bitter taste intensity [49] was 5.73 0-15 scale, the Sweetness potency [50] was 4.5 0-15 scale and the Sweetness potency [51] was 7.88 0-15 scale. The Sweetness potency [52] was 10.1 0-15 scale, the Sweetness potency [53] was 5.98 0-15 scale and the Sweetness potency [54] was 6.97 0-15 scale. For the same compound, the Sweetness potency [55] was 3.11 0-15 scale, the Sweetness potency [56] was 2.2 0-15 scale and the Sweetness potency [57] was 5.28 0-15 scale. The Sweetness potency [58] was 5.85 0-15 scale, the Sweetness potency [59] was 6.91 0-15 scale and the Sweetness potency [60] was 9.62 0-15 scale. The Bitter taste intensity [61] was 10.5 0-15 scale, the Sweetness potency [62] was 4.48 0-15 scale and the Sweetness potency [63] was 8.83 0-15 scale. The Sweetness potency [64] was 7.62 0-15 scale, the Sweetness potency [65] was 12 0-15 scale and the Sweetness potency [66] was 8.95 0-15 scale. For the same compound, the Bitter taste intensity [67] was 11.8 0-15 scale, the Sweetness potency [68] was 10.2 0-15 scale and the Sweetness potency [69] was 5.34 0-15 scale. For the same compound, the Bitter taste intensity [70] was 8.48 0-15 scale, the Sweetness potency [71] was 2.3 0-15 scale and the Sweetness potency [72] was 2.57 0-15 scale. For the same compound, the Sweetness potency [73] was 11.4 0-15 scale, the Sweetness potency [74] was 9.78 0-15 scale and the Sweetness potency [75] was 8.52 0-15 scale. The Sweetness potency [76] was 9.3 0-15 scale, the Sweetness potency [77] was 2.11 0-15 scale and the Sweetness potency [78] was 9.11 0-15 scale.
